Columns and labels:
Assay type in all cases: in vivo
[1] = tested on: GALIUM APARINE; assay: Postemergence herbicidal evaluation, GALAP (Galium); set-up: key to GALAP rating / Herbicidal effect rating, GALAP / GALAP: 0-9 visual rating scale vs untreated control; conditions: for GALAP, herbicide rating (0-9): rated four to five weeks after treatment, averaged
How it was run: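 Galium (GALAP) seedlings were raised in jiffy flats for about two weeks, then sprayed with test compounds dispersed in 50/50 acetone/water containing 0.5% TWEEN®20, delivered through a nozzle at 40 psi. Plants were kept on greenhouse benches and visually rated 0-9 against a control four to five weeks later; repeat tests were averaged.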

[2] = tested on: GLYCINE MAX(L) MERR. CV. WILLIAMS; assay: Postemergence herbicidal evaluation, GLXMAW (Soybean, Williams); set-up: key to GLXMAW rating / Herbicidal effect rating, GLXMAW / GLXMAW: 0-9 visual rating scale vs untreated control
How it was run: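 Soybean seedlings (Williams) were raised in jiffy flats for roughly two weeks, then sprayed postemergence through a nozzle at 40 psi with test compound dispersed in 50/50 acetone/water containing 0.5% TWEEN®20. Treated plants were kept on greenhouse benches under normal care and visually rated on a 0-9 scale four to five weeks later.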

[3] = tested on: ORYZA SATIVA, L. TEBONNET; assay: Postemergence herbicidal evaluation, ORYSAT (Rice, Tebonnet); set-up: key: 0-9 visual rating scale vs untreated control
How it was run: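 Rice (Tebonnet) seedlings raised in jiffy flats for roughly two weeks were sprayed postemergence at 40 psi with compound dispersed in 50/50 acetone/water containing 0.5% TWEEN®20. The plants were then kept on greenhouse benches under standard care and visually scored on a 0-9 scale against a control four to five weeks after treatment.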

[4] = tested on: GALIUM APARINE; assay: Preemergence herbicidal evaluation, GALAP (Galium); conditions: for GALAP rating: four to five weeks after treatment; for GALAP herbicidal rating: rated four to five weeks after treatment
How it was run: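 Seeds mixed with potting soil were planted on about one inch of soil in cups, then sprayed with aqueous acetone solution of test compound at about 0.125 to 0.50 kg per hectare. Plants grown under greenhouse conditions; visual rating on a 0-9 scale versus untreated control at 4-5 weeks.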

[5] = tested on: ECHINOCHLOA ORYZOIDES (ARD.)FRITSCH; assay: Preemergence weed control under flooded paddy conditions, ECHORC (Watergrass (Calif.)); conditions: for Herbicidal effect rating, ECHORC: preemergence, 3-4 weeks after treatment; for ECHORC: pre-weed
How it was run: (§1)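 Seeds or propagules sown in top 0.5 cm of silt loam in undrained containers, flooded 1.5 to 3 cm throughout. Compounds in aqueous/acetone 50/50 v/v pipetted into flood water at about 0.5, 0.25, 0.125 and 0.063 kg/ha. Visual 0-9 rating versus control after three to four weeks in greenhouse.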

[6] = tested on: […], PRESL.; assay: Preemergence weed control under flooded paddy conditions, MOOVA (Monochoria); conditions: for Herbicidal effect rating, MOOVA: preemergence, 3-4 weeks after treatment; for MOOVA: pre-weed
How it was run: as §1

For COC(=O)Cn1c(=O)n(C)c(=O)n(-c2cc(Oc3c(F)cc(C(F)(F)F)cc3Cl)ccc2F)c1=O [Compound 4, Methyl 3-{5-[(2-chloro-α,α,α,6-tetrafluoro-p-tolyl)oxy]-2-fluorophenyl}tetrahydro-5-methyl-2,4,6-trioxo-s-triazine-1(2H)-acetate], the “Herbicidal effect rating, GALAP” value ([1]; 0.031 kg/ha) was 7.3, the “Herbicidal effect rating, GALAP” value ([1]; 0.063 kg/ha) was 8.4 and the “Herbicidal effect rating, GALAP” value ([1]; 0.125 kg/ha) was 8.8. For the same compound, the “Herbicidal effect rating, GALAP” value ([1]; 0.250 kg/ha) was 8.1, the “Herbicidal effect rating, GLXMAW” value ([2]; 0.031 kg/ha) was 5.1 and the “Herbicidal effect rating, GLXMAW” value ([2]; 0.063 kg/ha) was 5.7. For the same compound, the “Herbicidal effect rating, GLXMAW” value ([2]; 0.125 kg/ha) was 6.4, the “Herbicidal effect rating, GLXMAW” value ([2]; 0.250 kg/ha) was 7.3 and the “Herbicidal effect rating, ORYSAT” value ([3]; 0.031 kg/ha) was 4.6. The “Herbicidal effect rating, ORYSAT” value ([3]; 0.063 kg/ha) was 5.0, the “Herbicidal effect rating, ORYSAT” value ([3]; 0.125 kg/ha) was 5.7 and the “Herbicidal effect rating, ORYSAT” value ([3]; 0.250 kg/ha) was 6.4. It also gave a GALAP rating ([4]; Rate 0.125 kg/ha) of 7.3, a GALAP rating ([4]; Rate 0.250 kg/ha) of 9.0 and a GALAP rating ([4]; Rate 0.500 kg/ha) of 9.0.

With COC(=O)Cn1c(=O)n(C)c(=O)n(-c2cc(Oc3c(F)cc(C(F)(F)F)cc3Cl)ccc2[N+](=O)[O-])c1=O [Compound 16, Methyl 3-{5-[(2-chloro-α,α,α,6-tetrafluoro-p-tolyl)oxy]-2-nitrophenyl}tetrahydro-5-methyl-2,4,6-trioxo-s-triazine-1(2H)-acetate] the GALAP ([1]; Rate 0.008 kg/ha) was 4.5, the GALAP ([1]; Rate 0.016 kg/ha) was 6.0 and the GALAP ([1]; Rate 0.031 kg/ha) was 8.0. The GALAP ([1]; Rate 0.063 kg/ha) was 9.0, the GALAP ([1]; Rate 0.125 kg/ha) was 9.0 and the “GALAP, herbicide rating (0-9)” value ([1]; Rate 0.125 kg/ha) was 9.0. The “GALAP, herbicide rating (0-9)” value ([1]; Rate 0.250 kg/ha) was 9.0, the “GALAP, herbicide rating (0-9)” value ([1]; Rate 0.500 kg/ha) was 9.0 and the GLXMAW ([2]; Rate 0.008 kg/ha) was 3.3. For the same compound, the GLXMAW ([2]; Rate 0.016 kg/ha) was 3.8, the GLXMAW ([2]; Rate 0.031 kg/ha) was 4.6 and the GLXMAW ([2]; Rate 0.063 kg/ha) was 5.1. The GLXMAW ([2]; Rate 0.125 kg/ha) was 5.6, the ORYSAT ([3]; Rate 0.008 kg/ha) was 4.0 and the ORYSAT ([3]; Rate 0.016 kg/ha) was 6.0. For the same compound, the ORYSAT ([3]; Rate 0.031 kg/ha) was 5.3, the ORYSAT ([3]; Rate 0.063 kg/ha) was 5.3 and the ORYSAT ([3]; Rate 0.125 kg/ha) was 5.8. It also gave a GALAP ([4]; Rate 0.031 kg/ha) of 9.0, a GALAP ([4]; Rate 0.063 kg/ha) of 9.0 and a GALAP ([4]; Rate 0.125 kg/ha) of 9.0. It also gave a GALAP herbicidal rating ([4]; Rate 0.125 kg/ha) of 9.0, a GALAP ([4]; Rate 0.250 kg/ha) of 9.0 and a GALAP herbicidal rating ([4]; Rate 0.250 kg/ha) of 9.0. For the same compound, the GALAP herbicidal rating ([4]; Rate 0.500 kg/ha) was 9.0, the “Herbicidal effect rating, ECHORC” value ([5]; 0.063 kg/ha) was 9.0 and the “Herbicidal effect rating, ECHORC” value ([5]; 0.125 kg/ha) was 9.0. For the same compound, the “Herbicidal effect rating, ECHORC” value ([5]; 0.250 kg/ha) was 9.0, the “Herbicidal effect rating, ECHORC” value ([5]; 0.500 kg/ha) was 9.0 and the ECHORC ([5]; Rate 0.031 kg/ha) was 9.0. The ECHORC ([5]; Rate 0.063 kg/ha) was 9.0, the ECHORC ([5]; Rate 0.125 kg/ha) was 9.0 and the ECHORC ([5]; Rate 0.250 kg/ha) was 9.0. For the same compound, the “Herbicidal effect rating, MOOVA” value ([6]; 0.063 kg/ha) was 9.0, the “Herbicidal effect rating, MOOVA” value ([6]; 0.125 kg/ha) was 9.0 and the “Herbicidal effect rating, MOOVA” value ([6]; 0.250 kg/ha) was 9.0. For the same compound, the “Herbicidal effect rating, MOOVA” value ([6]; 0.500 kg/ha) was 9.0, the MOOVA ([6]; Rate 0.031 kg/ha) was 9.0 and the MOOVA ([6]; Rate 0.063 kg/ha) was 9.0. It also gave an MOOVA ([6]; Rate 0.125 kg/ha) of 9.0 and an MOOVA ([6]; Rate 0.250 kg/ha) of 9.0.

— EP0745595A1, “3-(3-Aryloxyphenyl)-1-(substituted methyl)-s-triazine-2,4,6-oxo or thiotrione herbicidal agents” (American Cyanamid Company, priority 1995, dated 1996)
